# According to patent US20060058227A1, “Hedgehog-related prophylaxis, therapy and diagnosis of gi tract carcinogenesis” (Academisch Ziekenhulis bij de Universiteit van Amsterdam, priority 2002, published 2006):
# Experiments:
# HT-29 cells = test: Butyrate induced differentiation of HT-29 cells, with or without cyclopamine (Western blot); format: cell-based; conditions: HT-29 cultures, 2 μ/ml cyclopamine plus butyrate, 24 hours, Western blot (FIGS. 13a,b)
# Experimental: (§1) The distal half of the rat colon was dissected along the longitudinal axis and one half was homogenised and processed for Western blotting as described below. Murine stomach and small intestine were homogenised in lysis buffer (300 mmol/L NaCl, 30 mmol/L Tris, 2 mmol/L MgCl2, 2 mmol/L CaCl2, 1% Triton X-100, pH 7.4, supplemented with 1 tablet of protease inhibitor [Roche] per 50 ml). Protein concentration was measured using the Bradford method. Lysates were diluted 1:3 in protein sample buffer (125 mmol/L Tris/HCl, pH 6.8; 4% sodium dodecyl sulfate; 2% β-mercaptoethanol; 20% glycerol, 1 mg bromophenol blue), and 100-200 μof homogenate was loaded per lane on a sodium dodecyl sulfate-pol-yacrylamide gel electrophoresis gel. After protein separation, the proteins were blotted on to a PVDF membrane (Millipore, Bedford, Mass.). Membranes were blocked with 2% protifar (Nutricia, Zoetermeer, The Netherlands) in phosphate-buffered saline (PBS), supplemented with 0.1% Tween-20 for 1 hour at room temperature. After a brief wash in washing buffer (0.2% protifar; 0.1% Tween-20), membranes were incubated overnight at 4° C. with antibody diluted in washing buffer at the indicated concentration. The next day, membranes were washed 3 times for 5 minutes each and subsequently incubated with a secondary horseradish peroxidase tHRP)-conjugated antibody in a 1:2000 dilution. After enhanced chemoluminescence using Lumilight^+ substrate (Roche, Mannheim, Germany), antibody binding was visualised using a Lumi-Imager (Boehringer Mannheim, Mannheim, Germany).
# HT 29 colon cancer cell lines were cultured according to routine procedures in the presence of 10% fetal calf serum (GIBCO). Recombinant Shh (R&D systems) was used at the indicated concentrations; Butyrate (Sigma) was used at a 5 mM concentration.
# [1] = system: colonic epithelial cell differentiation; test: Cyclopamine treatment of rats: markers of colonic epithelial differentiation (Western blot, H&E, immunohistochemistry); format: in vivo, rat; conditions: for carbonic anhydrase (CA) IV expression in enterocytes / intestinal trefoil factor expression in the enterocytes / Villin distribution in enterocytes: rat colon; for carbonic anhydrase (CA) IV expression in enterocytes: CA IV immunohistochemistry, cyclopamine treated vs control (FIG. 11G,H); for intestinal trefoil factor expression in the enterocytes: ITF immunohistochemistry, cyclopamine treated vs control (FIG. 11I-L); for Villin distribution in enterocytes: Villin immunohistochemistry, cyclopamine treated vs control (FIG. 11E,F); for enterocyte maturation / terminal differentiation of enterocytes in the colon: H&E and immunohistochemistry
# Experimental: (§2) Formalin fixed paraffin embedded human biopsy and resection specimens of uninflamed colonic mucosa, sporadic adenomas, sporadic carcinomas and adenomas from patients with FAP were obtained from the archives of the pathology department of the Academic Medical Center following institutional standards for human subject research. Immunohistochemistry was performed on 4μ sections using a three-step diaminobenzidine (DAB) detection method with antigen retrieval as described in detail previously (van den Brink et al., 2000). For BrdU visualisation, sections were incubated in 2N HCl at 37° C. for 60 minutes after deparaffinization and then washed in boric acid pH 8.5. Sections were counterstained with Mayer's hematoxylin, except when stained for HNF3β, engrailed-1 or β-catenin to allow optimal visualisation of nuclear staining. BrdU positive nuclei were scored as described (van den Brink et al., 2001).
# as §1
# (§3) In addition to the mice described above, 8-week-old female Wistar rats (n=7) were treated with daily intraperitoneal injections of 1 mg/kg of the Hedgehog inhibitor cyclopamine complexed with 2-hydroxypropyl-β-cyclodextrin (HBC; Sigma) as described (van den Brink et al., 2001). Control rats (n=7) received solvent only. After 14 days, rats were given a single intraperitoneal injection of 150 mg/kg BrdU one hour before being killed.
# (§4) The distal half of the rat colon was dissected along the longitudinal axis and one half was homogenised and processed for Western blotting as described (van den Brink et al., 2001). To study Shh expression in the human GI tract we used specimens from the archives of the department of pathology of the Academic Medical Center and the Department of Pathology of the Massachusetts General Hospital and Brigham and Women's Hospital. We examined tissue with normal histology of at least 6 different patients to investigate each site along the normal GI tract for Shh expression. Other specimens included: tissue from 16 different patients with intestinal metaplasia of the stomach, 13 resection specimens of Meckel's diverticulum and 6 resection specimens of patients with Barrett's esophagus.
# Hh signalling = test: Cyclopamine treatment of rats: Western blots of putative Hedgehog regulated proteins in colonic homogenates; format: in vivo; conditions: adult rat colon homogenate, Western blot
# Experimental: as §1, §3, §4
# [2] = system: precursor cell proliferation in the adult colon; test: Cyclopamine treatment of rats: markers of proliferation in the adult colon (Western blot, BrdU labelling); format: in vivo, rat
# Experimental: as §2, §1
# as §3, with “After 14 days, rats were given a single intraperitoneal injection of 150 mg/kg BrdU one hour before being killed.” left out
structure (smiles),measurement,setting,value
CC1=C2C[C@H]3[C@@H](CC=C4C[C@@H](O)CC[C@@]43C)[C@@H]2CC[C@]12O[C@@H]1C[C@H](C)CN[C@H]1[C@H]2C [cyclopamine],butyrate mediated induction of E-cadherin,HT-29 cells,significantly reduced
same,butyrate mediated induction of Villin,HT-29 cells,significantly reduced
same,butyrate mediated induction of cip-1,HT-29 cells,significantly reduced
same,"Intestinal trefoil factor (ITF/TFF3) expression, goblet cell lineage marker","[1]; adult rat colon homogenate, Western blot, cyclopamine 1 mg/kg i.p. daily for 14 days (FIG. 4, P=0.008)",strong induction
same,"expression of Villin, marker of enterocyte differentiation","[1]; adult rat colon homogenate, Western blot, cyclopamine 1 mg/kg i.p. daily for 14 days (FIG. 4, P=0.02)",reduced
same,carbonic anhydrase (CA) IV expression in enterocytes,[1],loss
same,carbonic anhydrase (CA) IV expression in enterocytes,[1]; listed as Cyclopamine,Loss
same,intestinal trefoil factor expression in the enterocytes,[1],induction
same,intestinal trefoil factor expression in the enterocytes,[1]; listed as Cyclopamine,strong immunoreactivity
same,Villin distribution in enterocytes,[1],villin-redistribution
same,Villin distribution in enterocytes,[1]; listed as Cyclopamine,apical staining is diminished and cytoplasmic staining enhanced
same,enterocyte maturation / terminal differentiation of enterocytes in the colon,"[1]; rat distal colon, cyclopamine treated vs control (FIG. 11)",inhibited
same,enterocyte maturation / terminal differentiation of enterocytes in the colon,"[1]; rat distal colon, cyclopamine treated vs control (FIG. 11), listed as Cyclopamine",disturbs
same,histoarchitecture of the colon,"[1]; rat distal colon, H&E, cyclopamine treated vs control (FIG. 11)",dramatic changes
same,levels of BMP4,"Hh signalling; cyclopamine 1 mg/kg i.p. daily for 14 days vs solvent controls (FIG. 3, P=0.0001)",markedly induced
same,HNF3β protein level,"Hh signalling; cyclopamine 1 mg/kg i.p. daily for 14 days vs solvent controls (FIG. 3, P=0.001)",dramatically upregulated
same,engrailed-1 protein level,"Hh signalling; cyclopamine 1 mg/kg i.p. daily for 14 days vs solvent controls (FIG. 3, P=0.002)",dramatically upregulated
same,GATA-6 protein level,"Hh signalling; cyclopamine 1 mg/kg i.p. daily for 14 days vs solvent controls (FIG. 3, P=0.005)",significantly downregulated
same,Ihh expression under Hh inhibition,"Hh signalling; cyclopamine 1 mg/kg i.p. daily for 14 days vs solvent controls (FIG. 3, P=0.08)",not necessary for maintenance of its own expression
same,expression levels of BMP-2,"Hh signalling; cyclopamine 1 mg/kg i.p. daily for 14 days vs solvent controls (FIG. 3, P=0.25)",no effect
same,expression of PCNA,"[2]; adult rat colon homogenate, Western blot, cyclopamine 1 mg/kg i.p. daily for 14 days (FIG. 4, P<0.0001)",increased
same,expression of cyclin D1,"[2]; adult rat colon homogenate, Western blot, cyclopamine 1 mg/kg i.p. daily for 14 days (FIG. 4, P=0.01)",increased
same,"mitogenesis (PCNA, cyclin D1, BrdU labelled epithelial precursor cells)","[2]; adult rat colon, cyclopamine treated vs control (FIG. 12)",enhanced
same,incorporation of 5-bromo-2′-deoxyuridine (BrdU labelled cells per crypt),"[2]; adult rat colon, cyclopamine 1 mg/kg i.p. daily for 14 days, BrdU 150 mg/kg one hour before killing (FIG. 4, P=0.036)",increased
